Assay results taken from publication PMC3042952 (Nature structural & molecular biology, 2009).

Tests used:
T2-TrpRS = target: T1, T2-TrpRS (Homo sapiens, UniProt P23381); experiment: isothermal titration calorimetry; type: binding
T1 sequence (P23381 94-471): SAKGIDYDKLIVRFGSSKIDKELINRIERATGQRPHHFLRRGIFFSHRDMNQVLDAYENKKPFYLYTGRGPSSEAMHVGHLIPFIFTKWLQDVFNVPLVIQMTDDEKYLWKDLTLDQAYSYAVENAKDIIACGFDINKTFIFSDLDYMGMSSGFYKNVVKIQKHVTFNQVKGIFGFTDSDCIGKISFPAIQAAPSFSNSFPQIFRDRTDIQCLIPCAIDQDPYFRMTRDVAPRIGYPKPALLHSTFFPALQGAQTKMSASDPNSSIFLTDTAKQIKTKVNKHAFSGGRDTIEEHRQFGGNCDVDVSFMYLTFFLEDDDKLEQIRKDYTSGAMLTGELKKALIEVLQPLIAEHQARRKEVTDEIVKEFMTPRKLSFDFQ

[1] = target: T2, human VE-cadherin (extracellular portion)-Fc fusion, purified (human, UniProt P33151 48-599); experiment: co-IP
T2 sequence (looked up): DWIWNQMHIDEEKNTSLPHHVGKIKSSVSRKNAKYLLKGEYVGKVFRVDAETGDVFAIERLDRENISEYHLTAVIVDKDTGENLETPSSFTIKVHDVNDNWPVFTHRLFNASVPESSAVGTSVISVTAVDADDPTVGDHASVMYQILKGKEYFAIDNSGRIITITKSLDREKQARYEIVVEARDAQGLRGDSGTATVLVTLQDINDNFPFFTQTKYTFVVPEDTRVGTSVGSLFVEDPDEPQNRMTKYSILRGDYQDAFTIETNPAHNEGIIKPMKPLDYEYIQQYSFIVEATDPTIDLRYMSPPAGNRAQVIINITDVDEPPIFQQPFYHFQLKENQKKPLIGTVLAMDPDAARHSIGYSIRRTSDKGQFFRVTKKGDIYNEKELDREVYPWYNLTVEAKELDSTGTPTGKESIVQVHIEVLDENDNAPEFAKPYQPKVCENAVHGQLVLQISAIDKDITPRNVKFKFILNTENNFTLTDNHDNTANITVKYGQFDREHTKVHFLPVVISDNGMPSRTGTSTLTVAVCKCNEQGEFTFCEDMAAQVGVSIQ

## N[C@@H](Cc1c[nH]c2ccccc12)C(=O)O [Trp]
T2-TrpRS
  Kd: 11 µM

B1: full-length human tryptophanyl-tRNA synthetase (FL-TrpRS) (enzyme, UniProt P23381 1-471, looked up)
chain: MPNSEPASLLELFNSIATQGELVRSLKAGNASKDEIDSAVKMLVSLKMSYKAAAGEDYKADCPPGNPAPTSNHGPDATEAEEDFVDPWTVQTSSAKGIDYDKLIVRFGSSKIDKELINRIERATGQRPHHFLRRGIFFSHRDMNQVLDAYENKKPFYLYTGRGPSSEAMHVGHLIPFIFTKWLQDVFNVPLVIQMTDDEKYLWKDLTLDQAYSYAVENAKDIIACGFDINKTFIFSDLDYMGMSSGFYKNVVKIQKHVTFNQVKGIFGFTDSDCIGKISFPAIQAAPSFSNSFPQIFRDRTDIQCLIPCAIDQDPYFRMTRDVAPRIGYPKPALLHSTFFPALQGAQTKMSASDPNSSIFLTDTAKQIKTKVNKHAFSGGRDTIEEHRQFGGNCDVDVSFMYLTFFLEDDDKLEQIRKDYTSGAMLTGELKKALIEVLQPLIAEHQARRKEVTDEIVKEFMTPRKLSFDFQ
[1]
  amount bound relative to T2-TrpRS: ~5%
